From ChEMBL document CHEMBL4513139, “CO-ADD screening of University of Strathclyde (UK) compounds”

These compounds were tested on HEK293 (assay: cells). Conditions: Homo sapiens, ATCC CRL1573, HEK293; ASSAY_TEST Inhibition of Cell Viability; detection method Resazurin; Fluorescence (ex560/em590); MEDIA DMEM with 10% FBS; plate type 384well; TC; CORNING #3712; time 18 hr; read-out: CC50.
Type: functional, Homo sapiens, ATCC CRL1573

SMILES | CC50 [µg/mL]
CC(C)n1cc(NC(=O)c2cc(NC(=O)c3cc4ccccc4oc3=O)cn2C)cc1C(=O)Nc1cc(C(=O)NCCCN(C)C)n(C)c1.O=C(O)C(F)(F)F | > 32
Cn1cc(NC(=O)c2cc(NC(=O)c3ccc(/C=C/c4cc5ccccc5nc4On4nnc5ccccc54)cc3)cn2C)cc1C(=O)NCCN1CCOCC1.O=C(O)C(F)(F)F | > 32
CC(=O)/C=C/c1ccc(C(=O)Nc2cc(C(=O)Nc3cc(C(=O)NCCN4CCOCC4)n(C)c3)n(C)c2)cc1.O=C(O)C(F)(F)F | 7.01
Cn1cc(NC(=O)c2cc(NC(=O)c3cc4ccccc4cn3)cn2C)cc1C(=O)NCCN1CCOCC1.O=C(O)C(F)(F)F | > 32
CSc1ccc(/C=C/c2ccc3cc(C(=O)Nc4cc(C(=O)Nc5cc(C(=O)NCCN6CCOCC6)n(C)c5)n(C)c4)ccc3n2)cc1.O=C(O)C(F)(F)F | > 32

Each compound was assayed on Cryptococcus neoformans (assay: not given). Conditions: not given.

MIC [µg/mL] | SMILES
32 | CC(C)n1cc(NC(=O)c2cc(NC(=O)c3cc4ccccc4oc3=O)cn2C)cc1C(=O)Nc1cc(C(=O)NCCCN(C)C)n(C)c1.O=C(O)C(F)(F)F
> 32 | Cn1cc(NC(=O)c2cc(NC(=O)c3ccc(/C=C/c4cc5ccccc5nc4On4nnc5ccccc54)cc3)cn2C)cc1C(=O)NCCN1CCOCC1.O=C(O)C(F)(F)F
> 32 | CC(=O)/C=C/c1ccc(C(=O)Nc2cc(C(=O)Nc3cc(C(=O)NCCN4CCOCC4)n(C)c3)n(C)c2)cc1.O=C(O)C(F)(F)F
> 32 | Cn1cc(NC(=O)c2cc(NC(=O)c3cc4ccccc4cn3)cn2C)cc1C(=O)NCCN1CCOCC1.O=C(O)C(F)(F)F
8 | CSc1ccc(/C=C/c2ccc3cc(C(=O)Nc4cc(C(=O)Nc5cc(C(=O)NCCN6CCOCC6)n(C)c5)n(C)c4)ccc3n2)cc1.O=C(O)C(F)(F)F

The compounds below were run on Staphylococcus aureus (assay: microbe, parasite or virus in culture). Conditions: ATCC 43300, 18 h, ASSAY_TEST Inhibition of Bacterial Growth, detection method Absorption (OD600), MEDIA CAMHB, plate type 384well, NBS, CORNING #3640.
Description: Antibacterial activity against Staphylococcus aureus MRSA ATCC 43300 (CO-ADD:GP_020); MIC in CAMBH media, using NBS plates, by OD(600)

MIC [µg/mL] | SMILES
> 32 | CC(C)n1cc(NC(=O)c2cc(NC(=O)c3cc4ccccc4oc3=O)cn2C)cc1C(=O)Nc1cc(C(=O)NCCCN(C)C)n(C)c1.O=C(O)C(F)(F)F
> 32 | Cn1cc(NC(=O)c2cc(NC(=O)c3ccc(/C=C/c4cc5ccccc5nc4On4nnc5ccccc54)cc3)cn2C)cc1C(=O)NCCN1CCOCC1.O=C(O)C(F)(F)F
> 32 | CC(=O)/C=C/c1ccc(C(=O)Nc2cc(C(=O)Nc3cc(C(=O)NCCN4CCOCC4)n(C)c3)n(C)c2)cc1.O=C(O)C(F)(F)F
> 32 | Cn1cc(NC(=O)c2cc(NC(=O)c3cc4ccccc4cn3)cn2C)cc1C(=O)NCCN1CCOCC1.O=C(O)C(F)(F)F
> 32 | CSc1ccc(/C=C/c2ccc3cc(C(=O)Nc4cc(C(=O)Nc5cc(C(=O)NCCN6CCOCC6)n(C)c5)n(C)c4)ccc3n2)cc1.O=C(O)C(F)(F)F

Each compound was assayed on Escherichia coli (assay: microbe, parasite or virus in culture). Conditions: ATCC 25922, 18 h, ASSAY_TEST Inhibition of Bacterial Growth, detection method Absorption (OD600), MEDIA CAMHB, plate type 384well, NBS, CORNING #3640.
Description: Antibacterial activity against Escherichia coli ATCC 25922 (CO-ADD:GN_001); MIC in CAMBH media using NBS plates, by OD(600)

MIC [µg/mL] | SMILES
> 32 | CC(C)n1cc(NC(=O)c2cc(NC(=O)c3cc4ccccc4oc3=O)cn2C)cc1C(=O)Nc1cc(C(=O)NCCCN(C)C)n(C)c1.O=C(O)C(F)(F)F
> 32 | Cn1cc(NC(=O)c2cc(NC(=O)c3ccc(/C=C/c4cc5ccccc5nc4On4nnc5ccccc54)cc3)cn2C)cc1C(=O)NCCN1CCOCC1.O=C(O)C(F)(F)F
> 32 | CC(=O)/C=C/c1ccc(C(=O)Nc2cc(C(=O)Nc3cc(C(=O)NCCN4CCOCC4)n(C)c3)n(C)c2)cc1.O=C(O)C(F)(F)F
> 32 | Cn1cc(NC(=O)c2cc(NC(=O)c3cc4ccccc4cn3)cn2C)cc1C(=O)NCCN1CCOCC1.O=C(O)C(F)(F)F
> 32 | CSc1ccc(/C=C/c2ccc3cc(C(=O)Nc4cc(C(=O)Nc5cc(C(=O)NCCN6CCOCC6)n(C)c5)n(C)c4)ccc3n2)cc1.O=C(O)C(F)(F)F

Each compound was assayed on Klebsiella pneumoniae (assay: microbe, parasite or virus in culture). Conditions: ATCC 700603, 18 h, ASSAY_TEST Inhibition of Bacterial Growth, detection method Absorption (OD600), MEDIA CAMHB, plate type 384well, NBS, CORNING #3640.
Description: Antibacterial activity against Klebsiella pneumoniae MDR ATCC 70063 (CO-ADD:GN_003); MIC in CAMBH media using NBS plates, by OD(600)

MIC [µg/mL] | SMILES
> 32 | CC(C)n1cc(NC(=O)c2cc(NC(=O)c3cc4ccccc4oc3=O)cn2C)cc1C(=O)Nc1cc(C(=O)NCCCN(C)C)n(C)c1.O=C(O)C(F)(F)F
> 32 | Cn1cc(NC(=O)c2cc(NC(=O)c3ccc(/C=C/c4cc5ccccc5nc4On4nnc5ccccc54)cc3)cn2C)cc1C(=O)NCCN1CCOCC1.O=C(O)C(F)(F)F
> 32 | CC(=O)/C=C/c1ccc(C(=O)Nc2cc(C(=O)Nc3cc(C(=O)NCCN4CCOCC4)n(C)c3)n(C)c2)cc1.O=C(O)C(F)(F)F
> 32 | Cn1cc(NC(=O)c2cc(NC(=O)c3cc4ccccc4cn3)cn2C)cc1C(=O)NCCN1CCOCC1.O=C(O)C(F)(F)F
> 32 | CSc1ccc(/C=C/c2ccc3cc(C(=O)Nc4cc(C(=O)Nc5cc(C(=O)NCCN6CCOCC6)n(C)c5)n(C)c4)ccc3n2)cc1.O=C(O)C(F)(F)F

The compounds below were run on Pseudomonas aeruginosa (assay: microbe, parasite or virus in culture). Conditions: ATCC 27853, 18 h, ASSAY_TEST Inhibition of Bacterial Growth, detection method Absorption (OD600), MEDIA CAMHB, plate type 384well, NBS, CORNING #3640.
Description: Antibacterial activity against Pseudomonas aeruginosa ATCC 27853 (CO-ADD:GN_042); MIC in CAMBH media using NBS plates, by OD(600)

MIC [µg/mL] | SMILES
> 32 | CC(C)n1cc(NC(=O)c2cc(NC(=O)c3cc4ccccc4oc3=O)cn2C)cc1C(=O)Nc1cc(C(=O)NCCCN(C)C)n(C)c1.O=C(O)C(F)(F)F
> 32 | Cn1cc(NC(=O)c2cc(NC(=O)c3ccc(/C=C/c4cc5ccccc5nc4On4nnc5ccccc54)cc3)cn2C)cc1C(=O)NCCN1CCOCC1.O=C(O)C(F)(F)F
> 32 | CC(=O)/C=C/c1ccc(C(=O)Nc2cc(C(=O)Nc3cc(C(=O)NCCN4CCOCC4)n(C)c3)n(C)c2)cc1.O=C(O)C(F)(F)F
> 32 | Cn1cc(NC(=O)c2cc(NC(=O)c3cc4ccccc4cn3)cn2C)cc1C(=O)NCCN1CCOCC1.O=C(O)C(F)(F)F
> 32 | CSc1ccc(/C=C/c2ccc3cc(C(=O)Nc4cc(C(=O)Nc5cc(C(=O)NCCN6CCOCC6)n(C)c5)n(C)c4)ccc3n2)cc1.O=C(O)C(F)(F)F

These compounds were tested on Acinetobacter baumannii (assay: microbe, parasite or virus in culture). Conditions: ATCC 19606, 18 h, ASSAY_TEST Inhibition of Bacterial Growth, detection method Absorption (OD600), MEDIA CAMHB, plate type 384well, NBS, CORNING #3640.
Description: Antibacterial activity against Acinetobacter baumannii ATCC 19606 (CO-ADD:GN_034); MIC in CAMBH media using NBS plates, by OD600

MIC [µg/mL] | SMILES
> 32 | CC(C)n1cc(NC(=O)c2cc(NC(=O)c3cc4ccccc4oc3=O)cn2C)cc1C(=O)Nc1cc(C(=O)NCCCN(C)C)n(C)c1.O=C(O)C(F)(F)F
> 32 | Cn1cc(NC(=O)c2cc(NC(=O)c3ccc(/C=C/c4cc5ccccc5nc4On4nnc5ccccc54)cc3)cn2C)cc1C(=O)NCCN1CCOCC1.O=C(O)C(F)(F)F
> 32 | CC(=O)/C=C/c1ccc(C(=O)Nc2cc(C(=O)Nc3cc(C(=O)NCCN4CCOCC4)n(C)c3)n(C)c2)cc1.O=C(O)C(F)(F)F
> 32 | Cn1cc(NC(=O)c2cc(NC(=O)c3cc4ccccc4cn3)cn2C)cc1C(=O)NCCN1CCOCC1.O=C(O)C(F)(F)F
> 32 | CSc1ccc(/C=C/c2ccc3cc(C(=O)Nc4cc(C(=O)Nc5cc(C(=O)NCCN6CCOCC6)n(C)c5)n(C)c4)ccc3n2)cc1.O=C(O)C(F)(F)F

What follows are compounds tested on Candida albicans (assay: microbe, parasite or virus in culture). Conditions: ATCC 90028, ASSAY_TEST Inhibition of Fungal Growth, detection method Absorption (OD530), plate type 384well, NBS, CORNING #3640.
Description: Antifungal activity against Candida albicans ATCC 90028 (CO-ADD:FG_001); MIC in YNB media using NBS plates, by OD630

MIC [µg/mL] | SMILES
> 32 | CC(C)n1cc(NC(=O)c2cc(NC(=O)c3cc4ccccc4oc3=O)cn2C)cc1C(=O)Nc1cc(C(=O)NCCCN(C)C)n(C)c1.O=C(O)C(F)(F)F
> 32 | Cn1cc(NC(=O)c2cc(NC(=O)c3ccc(/C=C/c4cc5ccccc5nc4On4nnc5ccccc54)cc3)cn2C)cc1C(=O)NCCN1CCOCC1.O=C(O)C(F)(F)F
> 32 | CC(=O)/C=C/c1ccc(C(=O)Nc2cc(C(=O)Nc3cc(C(=O)NCCN4CCOCC4)n(C)c3)n(C)c2)cc1.O=C(O)C(F)(F)F
> 32 | Cn1cc(NC(=O)c2cc(NC(=O)c3cc4ccccc4cn3)cn2C)cc1C(=O)NCCN1CCOCC1.O=C(O)C(F)(F)F
4 | CSc1ccc(/C=C/c2ccc3cc(C(=O)Nc4cc(C(=O)Nc5cc(C(=O)NCCN6CCOCC6)n(C)c5)n(C)c4)ccc3n2)cc1.O=C(O)C(F)(F)F
